From patent EP4745134A1 (Jiangsu Yahong Meditech Co., Ltd., priority 2023, dated 2025)
Like-named read-outs stand apart in the source and are kept apart here.

Experiments:
[1] = molecular target: PRMT5-MTA (Homo sapiens, UniProt O14744); assay: Enzymatic inhibitory activity against PRMT5-MTA (AlphaScreen); assay type: biochemical; conditions: read-out: IC50
How it was run: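 PRMT5/[…] (1 nM) was preincubated for 30 min at room temperature with 1 µM […] and 2.5 µM SAM, then exposed to compound (10-point, 3-fold from 1000 nM) for 15 min at 23 °C. Histone H4 substrate (5 nM) was added and reacted for 45 min at 23 °C. Symmetric dimethyl-R3 H4 was detected by AlphaScreen and IC50 calculated.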

[2] = system: HCT116 MTAP KO cells; assay: Inhibitory activity against cell proliferation (CellTiter Glo, 6 days), HCT116 MTAP KO; assay type: cell-based; conditions: for IC50: HCT116 MTAP KO cells, 6 days, CellTiter Glo, read-out: HCT116 MTAP KO IC50; for Selectivity HCT 116-WT/ HCT116 MTAP KO: ratio of IC50 HCT116-WT / HCT116 MTAP KO
How it was run: (§1)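 HCT116 wild-type or MTAP-knockout cells (250/well, McCoy's 5A + 10% FBS) treated after overnight culture with 8-point 4-fold dilutions from 10000 nM for 6 days at 37 °C. Viability read by CellTiter Glo luminescence on day 7; IC50 calculated against DMSO controls.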

[3] = system: HCT116-WT cells; assay: Inhibitory activity against cell proliferation (CellTiter Glo, 6 days), HCT116-WT; assay type: cell-based; conditions: HCT116-WT cells, 6 days, CellTiter Glo, read-out: HCT116-WT IC50
How it was run: as §1

Chain of PRMT5-MTA (O14744 whole entry): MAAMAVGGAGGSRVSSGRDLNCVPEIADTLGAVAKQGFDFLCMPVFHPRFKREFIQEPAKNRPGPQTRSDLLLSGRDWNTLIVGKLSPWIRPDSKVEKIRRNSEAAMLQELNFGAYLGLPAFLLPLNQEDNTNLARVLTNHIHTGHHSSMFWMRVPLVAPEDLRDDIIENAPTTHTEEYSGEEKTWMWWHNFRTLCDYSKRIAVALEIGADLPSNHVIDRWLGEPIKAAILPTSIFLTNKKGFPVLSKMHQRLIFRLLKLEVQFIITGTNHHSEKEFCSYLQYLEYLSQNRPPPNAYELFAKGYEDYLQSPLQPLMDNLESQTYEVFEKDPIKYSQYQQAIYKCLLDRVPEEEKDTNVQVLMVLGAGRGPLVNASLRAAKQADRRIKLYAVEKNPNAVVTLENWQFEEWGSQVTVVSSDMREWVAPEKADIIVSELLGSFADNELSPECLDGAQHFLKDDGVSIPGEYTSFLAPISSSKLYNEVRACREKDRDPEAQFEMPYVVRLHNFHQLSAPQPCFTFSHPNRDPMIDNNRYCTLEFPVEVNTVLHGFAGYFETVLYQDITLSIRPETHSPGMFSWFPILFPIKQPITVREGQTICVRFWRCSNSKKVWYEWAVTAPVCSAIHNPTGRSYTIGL
Chain of PRMT5-MTA (Q9BQA1 whole entry partner): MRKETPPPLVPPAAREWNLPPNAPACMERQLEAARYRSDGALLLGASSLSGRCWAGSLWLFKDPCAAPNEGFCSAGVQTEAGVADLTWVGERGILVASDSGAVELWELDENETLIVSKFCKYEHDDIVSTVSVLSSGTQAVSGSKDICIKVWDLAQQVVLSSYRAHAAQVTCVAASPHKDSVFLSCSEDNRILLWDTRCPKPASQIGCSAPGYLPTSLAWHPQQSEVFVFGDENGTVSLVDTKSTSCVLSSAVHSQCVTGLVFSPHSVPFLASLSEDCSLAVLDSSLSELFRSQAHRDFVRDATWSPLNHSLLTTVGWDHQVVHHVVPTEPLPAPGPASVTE

SMILES | IC50 [1] [nM] | IC50 ([2]; Homo sapiens, HCT-116, 144 h) [nM] | Selectivity HCT 116-WT/ HCT116 MTAP KO [2] | IC50 ([3]; 144 h) [nM] | IC50 [2] [nM] | IC50 [3] [nM]
Cc1cc2cc(C(=O)N(Cc3ccc(C(F)(F)F)cn3)N(C)c3ncccc3OC(F)F)ccc2nc1N [Example 93, 2-amino-N'-(3-(difluoromethoxy)pyridin-2-yl)-N',3-dimethyl-N-((5-(trifluoromethyl)pyridin-2-yl)methyl)quinoline-6-carbohydrazide] | 1.4 | 20 | 30.60 | 612 |  | 
Cc1cc2cc(C(=O)N(Cc3ccc(C(F)(F)F)cn3)N(C)c3ccccc3F)ccc2nc1N [Example 111, 2-amino-N'-(2-fluorophenyl)-N',3-dimethyl-N-((5-(trifluoromethyl)pyridin-2-yl)methyl)quinoline-6-carbohydrazide] | 1.7 | 38 | 27.47 | 1040 |  | 
Cc1cc2cc(C(=O)N(Cc3ccc(-c4cnn(C(F)(F)F)c4)cn3)N(c3ncccn3)C3CC3)ccc2nc1N [Example 216, 2-amino-N'-cyclopropyl-3-methyl-N'-(pyrimidin-2-yl)-N-((5-(1-(trifluoromethyl)-1H-pyrazol-4-yl)pyridin-2-yl)methyl)qui noline-6-carbohydrazide] | 3.3 | 23 | 27.26 | 627 |  | 
C=Cc1cc2cc(C(=O)N(Cc3ccc(C(F)(F)F)cn3)N(C)c3ncccn3)ccc2nc1N [Example 304, 2-amino-N'-methyl-N'-(pyrimidin-2-yl)-N-((5-(trifluoromethyl)pyridin-2-yl)methyl)-3-v inylquinoline-6-carbohydrazide] | 3.9 | 204 | 17.81 | 3630 |  | 
Cc1cc2cc(C(=O)N(Cc3ccc(-c4cn[nH]c4)cn3)N(C)c3ncccn3)ccc2nc1N [Example 200, N-((5-(1H-pyrazol-4-yl)pyridin-2-yl)methyl)-2-amino-N',3-dimethyl-N'-(pyrimidin-2-yl)quinoline-6-carbohydrazide] | 1.7 | 36 | 34.36 | 1240 |  | 
CN(c1ncccn1)N(Cc1ccc(C(F)(F)F)cn1)C(=O)c1ccc2nc(N)c3cnccc3c2c1 [Example 308, 5-amino-N'-methyl-N'-(pyrimidin-2-yl)-N-((5-(trifluoromethyl)pyridin-2-yl)methyl)ben zo[c][2,7]naphthyridine-9-carbohydrazide] | 1.1 | 11 | 19.64 | 216 |  | 
Cc1cc2cc(C(=O)N(Cc3ccc(C(F)(F)F)cn3)N(C)c3ncc(OC(F)F)cn3)ccc2nc1N [Example 57, 2-amino-N'-(5-(difluoromethoxy)pyrimidin-2-yl)-N',3-dimethyl-N-((5-(trifluoromethyl)pyridin-2-yl)methyl)quinoline-6-carbohydrazide] | 1.9 | 490 | 11.51 | 5640 |  | 
Cc1cc2cc(C(=O)N(Cc3ccc(Br)cn3)N(C)c3ncccn3)ccc2nc1N [Example 67, 2-amino-N-((5-bromopyridin-2-yl)methyl)-N',3-dimethyl-N'-(pyrimidin-2-yl)quin oline-6-carbohydrazide] | 1.5 | 40 | 40.08 | 1600 |  | 
Cc1cc2cc(C(=O)N(Cc3ccc(C(F)(F)F)cn3)N(C)c3ncc4ncccc4n3)ccc2nc1N [Example 80, 2-amino-N',3-dimethyl-N'-(pyrido[3,2-d]pyrimidin-2-yl)-N-((5-(trifluoromethyl)pyridin-2-yl)methyl)quinoline-6-carbohydrazide] | 1.9 | 132 | 14.18 | 1870 |  | 
Cc1cc2nc(N)c3cnn(C)c3c2cc1C(=O)N1CC(C)CN1c1ncc(-c2scnc2C)cc1F (stereo not shown) [Example 475, (4-amino-1,7-dimethyl-1H-pyrazolo[4,3-c]quinolin-8-yl)(2-(3-fluoro-5-(4-methylthiazol-5-yl)pyridin-2-yl)-4-methylpyrazolidin-1-yl)methanone] | 5.1 | 63 | 43.81 | 2760 |  | 
Cc1cc2nc(N)c3cnn(C)c3c2cc1C(=O)N1CCCN1c1ccc(C2CC2)cn1 [Example 468, (4-amino-1,7-dimethyl-1H-pyrazolo[4,3-c]quinolin-8-yl)(2-(5-cyclopropylpyridin-2-yl)pyrazolidin-1-yl)methanone] | 3.2 | 180 | 24.09 | 4340 |  | 
Cc1cc2cc(C(=O)N(Cc3ccc(C(F)(F)F)cn3)N(C)c3ncc(C#N)cn3)ccc2nc1N [Example 58, 2-amino-N'-(5-cyanopyrimidin-2-yl)-N',3-dimethyl-N-((5-(trifluoromethyl)pyridin-2-yl)methyl)quinoline-6-carbohydrazide] | 4 | 210 | 14.92 | 3130 |  | 
Cc1cc2cc(C(=O)N(Cc3ccc(Br)cn3)N(C)c3ncccc3F)ccc2nc1N [Example 48, 2-amino-N-((5-bromopyridin-2-yl)methyl)-N'-(3-fluoropyridin-2-yl)-N',3-dimethyl quinoline-6-carbohydrazide] | 3.7 | 13 | 35.85 | 466 |  | 
Cc1cc2cc(C(=O)N(Cc3ccc(-c4ccc(N5CCCC5)nc4)cn3)N(C)c3ncccn3)ccc2nc1N [Example 211, 2-amino-N',3-dimethyl-N'-(pyrimidin-2-yl)-N-((6'-(pyrrolidin-1-yl)-[3,3'-bipyridine]-6-yl)methyl)quinoline-6-carbohydrazide] | 2.3 | 84 | 18.96 | 1590 |  | 
Cc1cc2nc(N)c3cnn(C)c3c2cc1C(=O)N1CCCN1c1ccc(C(F)(F)F)cn1 [Example 338, (4-amino-1,7-dimethyl-1H-pyrazolo[4,3-c]quinolin-8-yl)(2-(5-(trifluoromethyl)pyridin-2-yl)pyrazolidin-1-yl)methanone] | 2.8 | 153 | 24.64 | 3770 |  | 
Cc1cc2nc(N)c3cnn(C)c3c2cc1C(=O)N1CC(C)CN1c1cccc(Cl)n1 (stereo not shown) [Example 403, (4-amino-1,7-dimethyl-1H-pyrazolo[4,3-c]quinolin-8-yl)(2-(6-chloropyridin-2-yl)-4-methylpyrazolidin-1-yl)methanone] | 3.8 | 14 | 19.79 | 277 |  | 
Cc1cc2cc(C(=O)N(Cc3ccc(C#N)cn3)N(C)c3ncccn3)ccc2nc1N [Example 94, 2-amino-N-((5-cyanopyridin-2-yl)methyl)-N',3-dimethyl-N'-(pyrimidin-2-yl) quinoline-6-carbohydrazide] | 2.3 | 130 | 23.60 | 3070 |  | 
CN(c1ncccn1)N(Cc1ccc(C(F)(F)F)cn1)C(=O)c1ccc2nc(N)c(Br)cc2c1 [Example 303, 2-amino-3-bromo-N'-methyl-N'-(pyrimidin-2-yl)-N-((5-(trifluoromethyl)pyridin-2-yl)methyl)quinoline-6-carbohydrazide] | 3 | 110 | 27.20 | 2990 |  | 
Cc1cc2cc(C(=O)N(Cc3ccc(C(F)(F)F)cn3)N(C)c3ncc4ccsc4n3)ccc2nc1N [Example 92, 2-amino-N',3-dimethyl-N'-(thieno[2,3-d]pyrimidin-2-yl)-N-((5-(trifluoromethyl)pyridin-2-yl)methyl)quinoline-6-carbohydrazide] | 2.1 | 19 | 29.95 | 569 |  | 
Cc1cc2nc(N)c3cnn(C)c3c2cc1C(=O)N1CC2(CCC2)CN1c1ncccc1F [Example 348, (4-amino-1,7-dimethyl-1H-pyrazolo[4,3-c]quinolin-8-yl)(7-(3-fluoropyridin-2-yl)-6,7-diazaspiro[3.4]octan-6-yl)methanone] | 7.5 | 6.9 | 30.14 | 208 |  | 
CN(c1ccccc1)N(Cc1ccc(C(F)(F)F)cn1)C(=O)c1ccc2nc(N)c3cnn(C)c3c2c1 [Example 15, 4-amino-N',1-dimethyl-N'-phenyl-N-((5-(trifluoromethyl)pyridin-2-yl)methyl)-1H-pyrazolo[4,3-c]quinoline-8-carbohydrazide] | 3.7 |  | 18.27 |  | 26 | 475
Cc1cc2nc(N)c3cnn(C)c3c2cc1C(=O)N1C(C)CCN1c1ncc(Br)cc1F (stereo not shown) [Example 391, (4-amino-1,7-dimethyl-1H-pyrazolo[4,3-c]quinolin-8-yl)(2-(5-bromo-3-fluoropyridin-2-yl)-5-methylpyrazolidin-1-yl)metha none] | 7.4 | 84 | 33.94 | 2850 |  | 
